Read-outs that look alike come from different tables or passages of the source.

These results are taken from patent publication US20260317320A1, “C5AR1 ANTAGONISTS AND USES THEREOF” (Vanqua Bio, Inc., priority 2022, published 2026).

For assay [1], the target named is T1, complement C5a receptor 1 (C5aR1) (Homo sapiens, UniProt P21730).
T1 construct: β-galactosidase fragment (PathHunter enzyme complementation); host or cells: CHO-K1 (PathHunter CHO-K1 C5aR1 β-arrestin cell line)
T1 sequence (P21730 1-350): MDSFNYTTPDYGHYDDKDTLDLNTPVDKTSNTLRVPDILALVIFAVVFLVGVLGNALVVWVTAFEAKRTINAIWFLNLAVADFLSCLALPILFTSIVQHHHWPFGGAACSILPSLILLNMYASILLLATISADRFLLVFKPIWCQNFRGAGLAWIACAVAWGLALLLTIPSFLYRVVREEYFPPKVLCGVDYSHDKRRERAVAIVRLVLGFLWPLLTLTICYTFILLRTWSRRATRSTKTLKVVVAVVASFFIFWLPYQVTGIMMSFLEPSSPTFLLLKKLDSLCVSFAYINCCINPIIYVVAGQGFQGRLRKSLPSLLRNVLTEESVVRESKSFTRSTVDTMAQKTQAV
Description: β-arrestin recruitment via C5aR1 activation in live CHO-K1 cells (PathHunter), agonist mode. The class given is cell-based. Put shortly:
(§1)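 Live CHO-K1 cells carry two galactosidase enzyme fragments, one fused to β-arrestin and one to C5aR1, so that β-arrestin recruitment restores enzyme activity. Agonist mode tests compounds alone. Antagonist mode tests them against recombinant hC5a at EC90, and IC50 values are reported in binned ranges.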

Assay [2] addresses T1, complement C5a receptor 1 (C5aR1). Description: β-arrestin recruitment via C5aR1 activation in live CHO-K1 cells (PathHunter), antagonist mode. The class given is cell-based. An outline of the steps: as §1
Where [3] appears, read: antagonist mode, recombinant hC5a (EC90) as competing natural agonist, live CHO-K1 cells, read-out: [Antagonist] B-arrestin2 recruitment: Average IC50.

For the compound `Cc1cnc2cc(C3CCN(c4c(C)cccc4F)CC3)c(=O)n(Cc3nccnc3C(F)(F)F)c2n1` [compound 25, 7-(1-(2-Fluoro-6-methylphenyl)piperidin-4-yl)-3-methyl-5-((3-(trifluoromethyl)pyrazin-2-yl)methyl)pyrido[2,3-b]pyrazin-6(5H)-one], in assay [1], the “[Agonist] B-arrestin2 recruitment: Average EC50 (nM)” value (“[Agonist] B-arrestin2 recruitment” below) was “Non-Active”. For the same compound, the IC50 in assay [2] (setting [3]) is below 0.5 µM.
With `Cc1cnc(F)cc1N1CCC(c2cc3nccnc3n(Cc3ccccc3C(F)(F)F)c2=O)CC1` [compound 26, 7-(1-(2-fluoro-5-methylpyridin-4-yl)piperidin-4-yl)-5-(2-(trifluoromethyl)benzyl)pyrido-[2,3-b]pyrazin-6(5H)-one], in assay [1], the “[Agonist] B-arrestin2 recruitment” value was “Non-Active”. The IC50 in assay [2] (setting [3]) was 0.5 to 5 µM.
For `Cc1cccc(F)c1N1CCC(c2cc3nccnc3n(Cc3cnc(C(F)(F)F)cn3)c2=O)CC1` [compound 27, 7-(1-(2-Fluoro-6-methylphenyl)piperidin-4-yl)-5-((5-(trifluoromethyl)pyrazin-2-yl)methyl)pyrido[2,3-b]pyrazin-6(5H)-one], the “[Agonist] B-arrestin2 recruitment” value in assay [1] is given as “Non-Active”. For the same compound, the IC50 in assay [2] was above 100 µM.
Consider `Cc1cccc(F)c1N1CCC(c2cc3cncnc3n(Cc3nccnc3C(F)(F)F)c2=O)CC1` [compound 28, 6-(1-(2-fluoro-6-methylphenyl)piperidin-4-yl)-8-((3-(trifluoromethyl)pyrazin-2-yl)methyl)pyrido[2,3-d]pyrimidin-7(8H)-one], for which the “[Agonist] B-arrestin2 recruitment” value in assay [1] was “Non-Active”. Also, the IC50 in assay [2] (setting [3]) was 5 to 100 µM.
In the case of `Cc1c(N2CCC(c3cc4nccnc4n(Cc4ccccc4C(F)(F)F)c3=O)CC2)ccnc1F` [compound 29, 7-(1-(2-Fluoro-3-methylpyridin-4-yl)piperidin-4-yl)-5-(2-(trifluoromethyl)benzyl)pyrido-[2,3-b]pyrazin-6(5H)-one], the “[Agonist] B-arrestin2 recruitment” value in assay [1] is “Non-Active”. In addition, the IC50 in assay [2] (setting [3]) was in the range of 5 to 100 µM.
With `Cc1cccc(F)c1N1CCC(c2cc3nccnc3n(Cc3cncc(C(F)(F)F)n3)c2=O)CC1` [compound 30, 7-(1-(2-Fluoro-6-methylphenyl)piperidin-4-yl)-5-((6-(trifluoromethyl)pyrazin-2-yl)methyl)pyrido[2,3-b]pyrazin-6(5H)-one], the “[Agonist] B-arrestin2 recruitment” value in assay [1] was “Non-Active”. Moreover, the IC50 in assay [2] is 5 to 100 µM.
Turning to `Cc1ccnc(F)c1N1CCC(c2cc3nccnc3n(Cc3ccccc3C(F)(F)F)c2=O)CC1` [compound 31, 7-(1-(2-Fluoro-4-methylpyridin-3-yl)piperidin-4-yl)-5-(2-(trifluoromethyl)benzyl)pyrido[2,3-b]pyrazin-6(5H)-one], the “[Agonist] B-arrestin2 recruitment” value in assay [1] is “Non-Active”. Besides, the IC50 in assay [2] (setting [3]) is below 0.5 µM.
The like results for `Cc1cc(F)ncc1N1CCC(c2cc3nccnc3n(Cc3ccccc3C(F)(F)F)c2=O)CC1` [compound 32, 7-(1-(6-Fluoro-4-methylpyridin-3-yl)piperidin-4-yl)-5-(2-(trifluoromethyl)benzyl)pyrido-[2,3-b]pyrazin-6(5H)-one] were, in that order, “Non-Active” and below 0.5 µM.
On to `COc1ccnc(F)c1N1CCC(c2cc3nccnc3n(Cc3ccccc3C(F)(F)F)c2=O)CC1` [compound 33, 7-(1-(2-Fluoro-4-methoxypyridin-3-yl)piperidin-4-yl)-5-(2-(trifluoromethyl)benzyl)pyrido[2,3-b]pyrazin-6(5H)-one], for which the “[Agonist] B-arrestin2 recruitment” value in assay [1] is reported as “Non-Active”. In assay [2] (setting [3]), the IC50 fell in the range of 0.5 to 5 µM.
For the compound `O=c1c(C2CCN(c3nccnc3F)CC2)cc2nccnc2n1Cc1ccccc1C(F)(F)F` [compound 34, 7-(1-(3-Fluoropyrazin-2-yl)piperidin-4-yl)-5-(2-(trifluoromethyl)benzyl)pyrido[2,3-b]pyrazine-6(5H)-one], the “[Agonist] B-arrestin2 recruitment” value in assay [1] is reported as “Non-Active”. The IC50 in assay [2] (setting [3]) is above 100 µM.
Take `Cc1cccc(F)c1N1CCC(c2cc3nccnc3n(Cc3ccccc3F)c2=O)CC1` [compound 35, 7-(1-(2-Fluoro-6-methylphenyl)piperidin-4-yl)-5-(2-fluorobenzyl)pyrido[2,3-b]pyrazin-6(5H)-one]: in assay [1], the “[Agonist] B-arrestin2 recruitment” value is recorded as “Non-Active”. Also, in assay [2] (setting [3]), the 50% inhibitory concentration (IC50) was below 0.5 µM.
The like results for `Cc1cccc(F)c1N1CCC(n2c(=O)c3ccccc3n(Cc3ncccc3C(F)(F)F)c2=O)CC1` [compound 36, 3-(1-(2-Fluoro-6-methylphenyl)piperidin-4-yl)-1-((3-(trifluoromethyl)pyridin-2-yl)methyl)quinazoline-2,4(1H,3H)-dione] were, in that order, “Non-Active” and 0.5 to 5 µM.
For the compound `Cc1cccc(F)c1N1CCC(n2c(=O)c3nccnc3n(Cc3nccnc3C(F)(F)F)c2=O)CC1` [compound 37, 3-(1-(2-Fluoro-6-methylphenyl)piperidin-4-yl)-1-((3-(trifluoromethyl)pyrazin-2-yl)methyl)pteridine-2,4(1H,3H)-dione], the “[Agonist] B-arrestin2 recruitment” value in assay [1] is given as “Non-Active”. The IC50 in assay [2] (setting [3]) lay in the range of 5 to 100 µM.
The matching figures for `O=c1c(C2CCN(c3ccccc3C(F)(F)F)CC2)cc2nccnc2n1Cc1ncccc1C(F)(F)F` [compound 38, 7-(1-(2-(Trifluoromethyl)phenyl)piperidin-4-yl)-5-((3-(trifluoromethyl)pyridin-2-yl)methyl)pyrido[2,3-b]pyrazin-6(5H)-one]: “Non-Active” and below 0.5 µM.
Regarding `Cc1cccc(F)c1N1CCC(c2nc3nccnc3n(Cc3ccccc3C(F)(F)F)c2=O)CC1` [compound 39, 3-(1-(2-Fluoro-6-methylphenyl)piperidin-4-yl)-1-(2-(trifluoromethyl)benzyl)pyrazino[2,3-b]pyrazin-2(1H)-one], the “[Agonist] B-arrestin2 recruitment” value in assay [1] is recorded as “Non-Active”. Further, in assay [2], the IC50 fell in the range of 0.5 to 5 µM.
`Cc1cnc2cc(C3CCN(c4c(C)cccc4F)CC3)c(=O)n(Cc3ncccc3C(F)(F)F)c2n1` [compound 41, 7-(1-(2-Fluoro-6-methylphenyl)piperidin-4-yl)-3-methyl-5-((3-(trifluoromethyl)pyridin-2-yl)methyl)pyrido[2,3-b]pyrazin-6(5H)-one]: in assay [1], the “[Agonist] B-arrestin2 recruitment” value was “Non-Active”. For the same compound, the half-maximal inhibitory concentration (IC50) in assay [2] (setting [3]) was below 0.5 µM.
In the case of `Cc1cccc(F)c1N1CCC(n2c(=O)c3nccnc3n(Cc3ncccc3C(F)(F)F)c2=O)CC1` [compound 42, 3-(1-(2-Fluoro-6-methylphenyl)piperidin-4-yl)-1-((3-(trifluoromethyl)pyridin-2-yl)methyl)pteridine-2,4(1H,3H)-dione], the “[Agonist] B-arrestin2 recruitment” value in assay [1] was “Non-Active”. Also, the IC50 in assay [2] (setting [3]) is 0.5 to 5 µM.
The like results for `Cc1ncc(F)cc1N1CCC(c2cc3nccnc3n(Cc3ncccc3C(F)(F)F)c2=O)CC1` [compound 44, 7-(1-(5-Fluoro-2-methylpyridin-3-yl)piperidin-4-yl)-5-((3-(trifluoromethyl)pyridin-2-yl)methyl)pyrido[2,3-b]pyrazin-6(5H)-one] were, in that order, “Non-Active” and above 100 µM.
For the compound `Cc1ncc(F)cc1N1CCC(c2cc3nccnc3n(Cc3nccnc3C(F)(F)F)c2=O)CC1` [compound 45, 7-(1-(5-Fluoro-2-methylpyridin-3-yl)piperidin-4-yl)-5-((3-(trifluoromethyl)pyrazin-2-yl)methyl)pyrido[2,3-b]pyrazin-6(5H)-one], the “[Agonist] B-arrestin2 recruitment” value in assay [1] is listed as “Non-Active”. The IC50 in assay [2] (setting [3]) is above 100 µM.
